Test results reported in patent publication US20250235427A1, “5-METHOXY-N,N-[…][…] THE TREATMENT OF SOCIAL/EMOTIONAL […] DETACHMENT” (GH RESEARCH IRELAND LIMITED, priority 2022, published 2025).

Tested on: patients with postpartum depression (PPD)
Test: Clinical trial, inhaled 5-MeO-DMT individualized dosing regimen in postpartum depression (one patient so far)
Experimental: The single-arm, open-label clinical trial will involve 15 adult female patients with clinically diagnosed postpartum depression (PPD).
The second dose (12 mg) will only be administered if: • a. […] The 6 mg dose was safe and well-tolerated according to the investigator, • c. Any psychoactive effects (PsE) of the prior dose have subsided, and • d. Pre-dose vital parameters and forced expiratory volume in one second (FEV1) are in normal range, or if outside of the normal range, are not clinically significant according to the investigator. • 3. Similarly, a third dose (18 mg) will only be administered if: • a. […] The 12 mg dose was safe and well-tolerated according to the investigator, and • c. Any PsE of the prior dose have subsided, and • d. Pre-dose vital parameters and forced expiratory volume in one second (FEV1) are in normal range, or if outside of the normal range, are not clinically significant according to the investigator.
The patients will be assessed for a peak psychedelic experience (based on a patient-scored visual analogue scale, the PE scale), sedation, and other endpoints after dosing. Follow-up visits are planned for Day 1, and Day 7 after the dosing day.

COc1ccc2[nH]cc(CCN(C)C)c2c1 [5-MeO-DMT]
standard criteria for MADRS response (at least 50% improvement) and MADRS remission (total score equal or less than 10): fulfilled | tolerability of the inhalation procedure: well tolerated with no inhalation-related adverse events | MADRS Concentration Difficulties improvement (2 hr, baseline 0): 0 | MADRS Concentration Difficulties score (2 hr, baseline 0): 0 | MADRS Reduced appetite improvement (2 hr, baseline 0): 0 | MADRS Reduced appetite score (2 hr, baseline 0): 0 | MADRS Suicidal Thoughts improvement (2 hr, baseline 0): 0 | MADRS Suicidal Thoughts score (2 hr, baseline 0): 0 | MADRS Inability to Feel improvement (2 hr, baseline 3): 3 | MADRS Inability to Feel score (2 hr, baseline 3): 0 | MADRS Lassitude improvement (2 hr, baseline 3): 3 | MADRS Lassitude score (2 hr, baseline 3): 0 | MADRS Pessimistic Thoughts improvement (2 hr, baseline 4): 4 | MADRS Pessimistic Thoughts score (2 hr, baseline 4): 0 | MADRS Reported sadness improvement (2 hr, baseline 4): 4 | MADRS Reported sadness score (2 hr, baseline 4): 0 | MADRS Apparent sadness improvement (2 hr, baseline 5): 5 | MADRS Apparent sadness score (2 hr, baseline 5): 0 | MADRS Inner Tension improvement (2 hr, baseline 5): 5 | MADRS Inner Tension score (2 hr, baseline 5): 0 | MADRS Reduced Sleep improvement (2 hr, baseline 5): 0 | MADRS Reduced Sleep score (2 hr, baseline 5): 5 | reported adverse events (cramping left abdominal pain and headache) (Day 0): mild, short-lasting and resolved spontaneously | MADRS Concentration Difficulties improvement (Day 1, baseline 0): 0 | MADRS Concentration Difficulties score (Day 1, baseline 0): 0 | MADRS Reduced appetite improvement (Day 1, baseline 0): 0 | MADRS Reduced appetite score (Day 1, baseline 0): 0 | MADRS Suicidal Thoughts improvement (Day 1, baseline 0): 0 | MADRS Suicidal Thoughts score (Day 1, baseline 0): 0 | BPRS Blunted affect improvement (Day 1, baseline 1): 0 | BPRS Blunted affect score (Day 1, baseline 1): 1 | BPRS Conceptual disorganization improvement (Day 1, baseline 1): 0 | BPRS Conceptual disorganization score (Day 1, baseline 1): 1 | BPRS Disorientation improvement (Day 1, baseline 1): 0 | BPRS Disorientation score (Day 1, baseline 1): 1 | BPRS Grandiosity improvement (Day 1, baseline 1): 0 | BPRS Grandiosity score (Day 1, baseline 1): 1 | BPRS Hallucinatory behaviour improvement (Day 1, baseline 1): 0 | BPRS Hallucinatory behaviour score (Day 1, baseline 1): 1 | BPRS Hostility improvement (Day 1, baseline 1): 0 | BPRS Hostility score (Day 1, baseline 1): 1 | BPRS Mannerisms and Posturing improvement (Day 1, baseline 1): 0 | BPRS Mannerisms and Posturing score (Day 1, baseline 1): 1 | BPRS Motor retardation improvement (Day 1, baseline 1): 0 | BPRS Motor retardation score (Day 1, baseline 1): 1 | BPRS Suspiciousness improvement (Day 1, baseline 1): 0 | BPRS Suspiciousness score (Day 1, baseline 1): 1 | BPRS Uncooperativeness improvement (Day 1, baseline 1): 0 | BPRS Uncooperativeness score (Day 1, baseline 1): 1 | BPRS Unusual Thought Content improvement (Day 1, baseline 1): 0 | BPRS Unusual Thought Content score (Day 1, baseline 1): 1 | BPRS Excitement improvement (Day 1, baseline 2): 1 | BPRS Excitement score (Day 1, baseline 2): 1 | MADRS Inability to Feel improvement (Day 1, baseline 3): 3 | MADRS Inability to Feel score (Day 1, baseline 3): 0 | MADRS Lassitude improvement (Day 1, baseline 3): 3 | MADRS Lassitude score (Day 1, baseline 3): 0 | MADRS Pessimistic Thoughts improvement (Day 1, baseline 4): 4 | MADRS Pessimistic Thoughts score (Day 1, baseline 4): 0 | MADRS Reported sadness improvement (Day 1, baseline 4): 4 | MADRS Reported sadness score (Day 1, baseline 4): 0 | BPRS Emotional withdrawal improvement (Day 1, baseline 5): 4 | BPRS Emotional withdrawal score (Day 1, baseline 5): 1 | MADRS Apparent sadness improvement (Day 1, baseline 5): 5 | MADRS Apparent sadness score (Day 1, baseline 5): 0 | MADRS Inner Tension improvement (Day 1, baseline 5): 5 | MADRS Inner Tension score (Day 1, baseline 5): 0 | MADRS Reduced Sleep improvement (Day 1, baseline 5): 5 | MADRS Reduced Sleep score (Day 1, baseline 5): 0 | BPRS Depressive Mood improvement (Day 1, baseline 6): 5 | BPRS Depressive Mood score (Day 1, baseline 6): 1 | BPRS Guilt feelings improvement (Day 1, baseline 6): 5 | BPRS Guilt feelings score (Day 1, baseline 6): 1 | BPRS Somatic Concern improvement (Day 1, baseline 6): 5 | BPRS Somatic Concern score (Day 1, baseline 6): 1 | BPRS Tension improvement (Day 1, baseline 6): 5 | BPRS Tension score (Day 1, baseline 6): 1 | BPRS Anxiety improvement (Day 1, baseline 7): 6 | BPRS Anxiety score (Day 1, baseline 7): 1 | BIMF item 2 (I feel rested) score (Day 7, Day 0 score 0): 2 | BIMF item 19 (As time goes on, I am getting better at taking care of my baby) score (Day 7, Day 0 score 0): 1 | BIMF item 18 (Anxiety or worry often interferes with my mothering ability) score (Day 7, Day 0 score 2): 5 | BIMF item 13 (I am taking good care of my physical needs) score (Day 7, Day 0 score 4): 5 | BIMF item 4 (My baby and I understand each other) score (Day 7, Day 0 score 5): 5 | BIMF item 5 (I am able to relax and enjoy time with my baby) score (Day 7, Day 0 score 5): 6 | BIMF item 9 (I am getting enough encouragement from other people) score (Day 7, Day 0 score 5): 6 | BIMF item 10 (I trust my own feelings (instincts) when it comes to taking care of my baby) score (Day 7, Day 0 score 5): 6 | BIMF item 15 (My baby and I are getting into a routine) score (Day 7, Day 0 score 5): 6 | BIMF item 17 (I am able to take care of my baby and my other responsibilities) score (Day 7, Day 0 score 5): 5 | BIMF item 1 (I am a good mother) score (Day 7, Day 0 score 6): 6 | BIMF item 3 (I am comfortable with the way I've chosen to feed my baby) score (Day 7, Day 0 score 6): 6 | BIMF item 6 (There are people in my life that I can trust to care for my baby when I need a break) score (Day 7, Day 0 score 6): 6 | BIMF item 8 (I am getting enough adult interaction) score (Day 7, Day 0 score 6): 6 | BIMF item 12 (I am taking good care of my baby's physical needs) score (Day 7, Day 0 score 6): 6 | BIMF item 14 (I make good decisions about my baby's health and well being) score (Day 7, Day 0 score 6): 6 | BIMF item 20 (I am satisfied with the job I am doing as a new mother) score (Day 7, Day 0 score 6): 5 | MADRS Concentration Difficulties improvement (Day 7, baseline 0): 0 | MADRS Concentration Difficulties score (Day 7, baseline 0): 0 | MADRS Reduced appetite improvement (Day 7, baseline 0): 0 | MADRS Reduced appetite score (Day 7, baseline 0): 0 | MADRS Suicidal Thoughts improvement (Day 7, baseline 0): 0 | MADRS Suicidal Thoughts score (Day 7, baseline 0): 0 | BPRS Blunted affect improvement (Day 7, baseline 1): 0 | BPRS Blunted affect score (Day 7, baseline 1): 1 | BPRS Conceptual disorganization improvement (Day 7, baseline 1): 0 | BPRS Conceptual disorganization score (Day 7, baseline 1): 1 | BPRS Disorientation improvement (Day 7, baseline 1): 0
